# According to US20110269811A1, “INHIBITORS OF SEMICARBAZIDE-SENSITIVE AMINE OXIDASE (SSAO) AND VAP-1 MEDIATED ADHESION USEFUL FOR TREATMENT AND PREVENTION OF DISEASES” (priority 2006, published 2011):
# Where a name gives a salt, the structure may show the parent alone.
row,SMILES,melting point
1,"COc1ccc(CC/C(=C/Cl)CN)cc1 (as salt: hydrochloride) [Compound I-33, (Z)-3-Chloro-2-(4-methoxyphenylethyl)allylamine hydrochloride]",123 to 124 °C
2,COc1cccc(CC/C=C(/F)CN)c1.Cl,112 to 113 °C
3,NC/C(=C\Cl)CCc1ccc(Cl)cc1 (as salt: trifluoroacetate),89 to 90 °C
4,COCc1cccc(C/C=C(/F)CN)c1 (as salt: hydrochloride),165 to 166 °C
5,NC/C(=C/Cl)CCc1ccccc1 (as salt: hydrochloride),97 to 98 °C
6,NC/C(=C/F)CCc1cccc(F)c1.O=C(O)C(F)(F)F,72 to 73 °C
7,"Cc1cccc(CC/C(=C/Cl)CN)c1 (as salt: hydrochloride) [Compound I-37, (Z)-3-Chloro-2-(3-methylphenylethyl)allylamine hydrochloride]",102 to 103 °C
8,NC/C(=C\F)Cc1ccc(F)cc1F (as salt: hydrochloride),130 to 131 °C
9,"NC/C(F)=C\Cc1cccc(C(F)(F)F)c1 (as salt: hydrochloride) [II-2, (E)-2-Fluoro-4-(3-trifluoromethylphenyl)-2-butenylamine hydrochloride]",145 to 147 °C
10,NC/C(=C\Cl)CCc1ccc(F)cc1 (as salt: trifluoroacetate),69 to 70 °C
11,NC/C(=C/F)CCc1cc(F)cc(C(F)(F)F)c1.O=C(O)C(F)(F)F,58 to 59 °C
12,"CCOc1ccc(CC/C(=C/Cl)CN)cc1 (as salt: hydrochloride) [Compound I-34, (Z)-3-Chloro-2-(4-ethoxyphenylethyl)allylamine hydrochloride]",160 to 162 °C
13,"COc1cccc(CC/C(=C/Cl)CN)c1 (as salt: hydrochloride) [Compound I-38, (Z)-3-Chloro-2-(3-methoxyphenylethyl)allylamine hydrochloride]",139 to 140 °C
14,NC/C(=C\F)Cc1cccc(C(F)(F)F)c1 (as salt: hydrochloride),161 to 162 °C
15,"CCCCOc1ccc(CC/C(=C/Cl)CN)cc1 (as salt: hydrochloride) [Compound I-36, (Z)-3-Chloro-2-(4-n-butoxyphenylethyl)allylamine hydrochloride]",133 to 134 °C
16,COc1cccc(C(C)/C=C(/F)CN)c1.Cl (stereo not shown) [II-18-E],133 to 134 °C
17,NC/C(=C\F)Cc1ccc(-c2ccccc2)cc1 (as salt: hydrochloride),219 to 220 °C
18,NC/C(=C/Cl)CCc1ccc(C(F)(F)F)cc1 (as salt: hydrochloride),89 to 90 °C
19,CS(=O)(=O)c1ccc(C/C(=C/F)CN)cc1 (as salt: trifluoroacetate),49 to 50 °C
20,NC/C(=C\F)Cc1ccc(F)cc1 (as salt: hydrochloride),139 to 140 °C
21,NC/C(=C\F)CCc1cccc(F)c1.O=C(O)C(F)(F)F,47 to 48 °C
22,"NC/C(=C\F)Cc1cc(F)ccc1F (as salt: hydrochloride) [Compound I-24, (Z)-3-Fluoro-2-(2,5-difluorobenzyl)allylamine hydrochloride]",105 to 106 °C

# Second part, the molecule after the results:
row,melting point,SMILES
1,118 to 119 °C,"Cc1cccc(C/C(=C/F)CN)c1 (as salt: hydrochloride) [Compound I-13, (Z)-3-Fluoro-2-(3-methylbenzyl)allylamine hydrochloride]"
2,163 to 164 °C,"NC/C(=C\F)Cc1ccc(F)c(Cl)c1 (as salt: hydrochloride) [Compound I-23, (Z)-3-Fluoro-2-(3-chloro-4-fluorobenzyl)allylamine hydrochloride]"
3,145 to 146 °C,NCC(=CF)Cc1cccc(O)c1 (as salt: citrate)
4,220 to 221 °C,COc1ccc(C/C(=C/F)CN)cc1OC.Cl
5,184 to 185 °C,NC/C(=C\F)Cc1cc(Cl)cc(Cl)c1 (as salt: hydrochloride)
6,141 to 142 °C,NC/C(=C\F)Cc1ccc(F)c(F)c1 (as salt: hydrochloride)
7,150 to 151 °C,Cc1ccc(C/C(=C/F)CN)cc1 (as salt: hydrochloride)
8,158 to 159 °C,Cc1cc(C/C(=C/F)CN)ccc1F (as salt: hydrochloride)
9,194 to 195 °C,COc1cc(C/C(=C/F)CN)cc(OC)c1 (as salt: hydrochloride)
10,160 to 161 °C,Cc1ccc(C/C(=C/F)CN)cc1F (as salt: hydrochloride)
11,158 to 159 °C,NC/C(=C\F)Cc1cc(F)cc(Cl)c1 (as salt: hydrochloride)
12,204 to 205 °C,COc1ccc(C/C(=C\F)CN)cc1OC.Cl
13,145 to 146 °C,NC/C(=C\F)Cc1cccc(Cl)c1 (as salt: hydrochloride)
14,145 to 146 °C,CSc1cccc(C/C(=C/F)CN)c1 (as salt: hydrochloride)
15,170 °C (dec.),"COc1ccc(C/C(=C/F)CN)cc1F (as salt: hydrochloride) [Compound I-21, (Z)-3-Fluoro-2-(3-fluoro-4-methoxybenzyl)allylamine hydrochloride]"
